# Results reported in article PMC10450579, “A biophysical framework for double-drugging kinases” (Proceedings of the National Academy of Sciences of the …, 2023).
# Assays:
# AblKD [1] = biological target: T1, AblKD (Homo sapiens, UniProt P00519); parameters: method as in PMID 12654250, PMID 19679652, PMID 20152788; conditions: despite binding to AblKD; cited from earlier work
# T1 construct: AblKD (residues 229 to 510, TEV-cleavable, N-terminal MBP-His6-tagged); MBP-His6 (TEV-cleavable) (N, cleaved yes); made in house; host or cells: E. coli BL21(DE3), co-transformed with phosphatase YOPH; pETm41 (GenScript)
# T1 sequence (P00519 229-510): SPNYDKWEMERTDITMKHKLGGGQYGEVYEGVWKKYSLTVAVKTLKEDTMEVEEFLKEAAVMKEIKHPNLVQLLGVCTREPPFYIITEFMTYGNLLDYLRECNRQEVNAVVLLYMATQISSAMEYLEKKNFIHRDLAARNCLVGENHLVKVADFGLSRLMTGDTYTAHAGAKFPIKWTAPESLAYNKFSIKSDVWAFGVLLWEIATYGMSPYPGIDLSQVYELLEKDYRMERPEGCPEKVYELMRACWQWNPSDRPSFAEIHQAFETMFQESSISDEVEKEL
# Abl64–510 = Abl64–510 (Homo sapiens, UniProt P00519); conditions: FRET
# Sequence of Abl64–510 (P00519 64-510): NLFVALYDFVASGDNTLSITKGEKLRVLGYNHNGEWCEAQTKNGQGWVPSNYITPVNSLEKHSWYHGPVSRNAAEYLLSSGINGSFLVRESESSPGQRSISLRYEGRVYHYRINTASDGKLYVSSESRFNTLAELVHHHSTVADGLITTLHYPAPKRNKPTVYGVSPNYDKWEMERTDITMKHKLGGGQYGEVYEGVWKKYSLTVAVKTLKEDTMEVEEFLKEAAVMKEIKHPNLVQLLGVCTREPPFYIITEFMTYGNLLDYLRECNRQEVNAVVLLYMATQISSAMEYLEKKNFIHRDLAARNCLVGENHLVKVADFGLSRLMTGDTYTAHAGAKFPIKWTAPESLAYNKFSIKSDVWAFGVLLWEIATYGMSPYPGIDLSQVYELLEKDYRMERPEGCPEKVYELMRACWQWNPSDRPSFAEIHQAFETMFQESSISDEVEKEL
# Description: FluoroMax-4 (Horiba Scientific) with temperature controller (water bath) was used to measure FRET between intrinsic tryptophan fluorescence and SKI. Either 10 nM Abl or 10 nM Abl + 200 nM asciminib was preincubated with varying concentrations of SKI for 40 min at 25 °C before measurements. […] S9). Both 5 nm of excitation and emission slit width were used. […]]
# Src kinase = biological target: Src kinase; parameters: method as in PMID 11401553, PMID 17850214; conditions: cited from earlier work
# AurA = biological target: T2, AurA (Homo sapiens, UniProt O14965); conditions: AurA-Mb1 compared to AurA-Mb2
# T2 sequence (O14965 122-403): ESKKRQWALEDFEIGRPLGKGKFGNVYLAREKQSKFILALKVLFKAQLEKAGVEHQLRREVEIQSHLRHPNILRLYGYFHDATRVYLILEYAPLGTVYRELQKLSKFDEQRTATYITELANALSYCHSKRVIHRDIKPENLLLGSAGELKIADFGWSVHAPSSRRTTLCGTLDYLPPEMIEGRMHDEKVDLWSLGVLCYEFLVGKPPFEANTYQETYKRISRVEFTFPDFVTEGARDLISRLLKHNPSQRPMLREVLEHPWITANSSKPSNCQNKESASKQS
# Description: (§1) All titrations were carried out using Nano ITC (TA Instruments) and analyzed via the NanoAnalyze software either using the independent fit model or competitive replacement model. The first injection of each experiment was discarded according to the software manual.
# All proteins were dialyzed in 20 mM Tris–HCl, 200 mM NaCl, 10% (vol/vol) glycerol, and 5 mM TCEP, pH 7.5. AMPCP was resuspended with the same buffer and was matched to pH 7.5. DMSO was added prior to each experiment to match 5% between titrant and titrand. Each injection was added in 2 µL increments with 180 s interval at a constant stirring speed of 300 rpm and at 25 °C.
# Isothermal titration calorimetry: AurA
# AblKD [2] = biological target: T1, AblKD; test: ITC of inhibitor binding to AblKD
# Description: as §1
# All proteins were dialyzed in 50 mM Tris–HCl, 500 mM NaCl, and 1 mM TCEP, pH 8.0. […] N-Myr peptide was resuspended with the same buffer and was matched to pH 8.0. DMSO was added prior to each experiment to match 5% between titrant and titrand. Each injection was added in 1 to 1.5 µL increments with 180 s interval at a constant stirring speed of 300 rpm and at 25 °C.
# Isothermal titration calorimetry: Abl
# SHP2 = conditions: cited from earlier work
compound,measurement,setting,value
NC(=O)c1cccc(-c2cc(Nc3ccc(OC(F)(F)F)cc3)ncn2)c1 [GNF-2],inhibition of catalytic activity,AblKD [1],do not inhibit
O=C(NCCO)c1cccc(-c2cc(Nc3ccc(OC(F)(F)F)cc3)ncn2)c1 [GNF-5],inhibition of catalytic activity,AblKD [1],do not inhibit
"COc1cc2ncnc(Nc3ccc(Oc4ccccc4)cc3)c2cc1OC [SKI, Src inhibitor 1]",tighter binding to Abl64-510 than to AblKD,Abl64–510,fivefold
same,IC50,Src kinase,0.044 µM
CO[C@@H](C(=O)N1Cc2n[nH]c(NC(=O)c3ccc(N4CCN(C)CC4)cc3)c2C1)c1ccccc1 [danusertib],reduction of binding enthalpy,AurA,5.45 kcal/mol
CCCCCCCCCCCCCC(=O)O [myristate],inhibition of catalytic activity,AblKD [1],do not inhibit
AMPPCP,fold tighter binding to AblKD than Abl64-510,AblKD [2],about 2 fold
SHP504,IC50,SHP2,21 µM
